Source: patent US20230295201A1 (Gilead Sciences, Inc., priority 2020, published 2023)
Where two headings read alike, the source gives them in different places.

What was measured:
Format in all cases: cell-based
HRV16 = HRV16 HELA EC50 (cytopathic effect in H1-HeLa cells)
Method in brief: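 H1-HeLa cells seeded one day before, given 3-fold serial compound dilutions in triplicate just prior to infection with pre-titrated virus. Incubated 96 h at 33 °C/5% CO2; protection from cytopathic effect read as viability by CellTiter-Glo luminescence, normalised to infected untreated (0%) and uninfected (100%) controls.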

RSV A2 = assay: RSV NHBE EC50 (RSV A2 antiviral assay in normal human bronchial epithelial cells); conditions: NHBE cells, RSV A2, 4 days, read-out: RSV NHBE EC50
RSV strain A2 = assay: RSV HEp-2 EC50 (infectious cytopathic cell protection assay); conditions: HEp-2 cells, RSV A2, 4 days, read-out: RSV HEp-2 EC50
Method in brief: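 HEp-2 cells mixed with titered RSV A2 at 50,000 cells/ml were added to plates holding 3-fold serial compound dilutions in DMSO, then incubated 4 days at 37° C. Cytoprotection was read as cell viability by CellTiter-Glo luminescence and converted to percent inhibition against 0% and 100% inhibition controls.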

DENV2 replicon = assay: DENV-2 Huh-7 Rep EC50 (replicon luminescence); conditions: Huh-7 replicon cells, 48 hours, read-out: DENV-2 Huh-7 Rep EC50
Method in brief: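 Huh-7 cells carrying a DENV2 replicon, 5,000 cells/well, were incubated with dosed compounds for 48 h at 37° C. EnduRen live-cell substrate was added 1.5 h before luminescence reading. EC50 came from dose-response against DMSO-only wells.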

[1] = 96 h, H1-HeLa cells, 33° C., read-out: HRV16 HELA EC50
[2] = human respiratory syncytial virus, NHBE, 96 h
[3] = human respiratory syncytial virus, HEp-2, 96 h
[4] = Dengue virus, DENV2, Huh-7, 48 h
[5] = H1-HeLa cells, 96 h, 33° C.; read-out: HRV16 HELA EC50

Compound	EC50 (HRV16; [1])	EC50 (RSV A2; [2])	EC50 (RSV strain A2; [3])	EC50 (DENV2 replicon; [4])	EC50 (RSV A2)	EC50 (DENV2 replicon)	EC50 (HRV16; [5])	EC50 (RSV strain A2)
C[C@H](NP(=O)(OC[C@@]1(C#N)O[C@@H](c2ccc3c(N)ncnn23)[C@H](O)[C@@H]1O)Oc1ccccc1)C(=O)OCC1CC1 (mixture of isomers) [Example 8, (2S)-cyclopropylmethyl 2-(((((2R,3S,4R,5S)-5-(4-aminopyrrolo[2,1-f][1,2,4]triazin-7-yl)-2-cyano-3,4-dihydroxytetrahydrofuran-2-yl)methoxy)(phenoxy)phosphoryl)amino)propanoate]	472 nM	351 nM	182 nM	37300 nM				
CC(C)OC(=O)[C@H](C)NP(=O)(OC[C@@]1(C#N)O[C@@H](c2ccc3c(N)ncnn23)[C@H](O)[C@@H]1O)Oc1ccccc1 (mixture of isomers) [Example 77, Isopropyl ((((2R,3S,4R,5S)-5-(4-aminopyrrolo[2,1-f][1,2,4]triazin-7-yl)-2-cyano-3,4-dihydroxytetrahydrofuran-2-yl)methoxy)(phenoxy)phosphoryl)-L-alaninate]	1420 nM	1150 nM	464 nM	49800 nM				
CCC(CC)COC(=O)[C@H](CC)NP(=O)(OC[C@@]1(C#N)O[C@@H](c2ccc3c(N)ncnn23)[C@H](O)[C@@H]1O)Oc1ccccc1 (mixture of isomers) [Example 88, (2S)-2-ethylbutyl 2-(((((2R,3S,4R,5S)-5-(4-aminopyrrolo[2,1-f][1,2,4]triazin-7-yl)-2-cyano-3,4-dihydroxytetrahydrofuran-2-yl)methoxy)(phenoxy)phosphoryl)amino)butanoate]	1060 nM	36 nM	336 nM	62000 nM				
CC[C@H](NP(=O)(OC[C@@]1(C#N)O[C@@H](c2ccc3c(N)ncnn23)[C@H](O)[C@@H]1O)Oc1ccccc1)C(=O)OC1CCCCC1 (mixture of isomers) [Example 103, (2S)-cyclohexyl 2-(((((2R,3S,4R,5S)-5-(4-aminopyrrolo[2,1-f][1,2,4]triazin-7-yl)-2-cyano-3,4-dihydroxytetrahydrofuran-2-yl)methoxy)(phenoxy)phosphoryl)amino)butanoate]	2440 nM	548 nM	938 nM	> 50000 nM				
CCCCCCCCCCCC(=O)OCCNP(=O)(OC[C@@]1(C#N)O[C@@H](c2ccc3c(N)ncnn23)[C@H](O)[C@@H]1O)Oc1ccccc1 (mixture of isomers) [Example 181, 2-(((((2R,3S,4R,5S)-5-(4-aminopyrrolo[2,1-f][1,2,4]triazin-7-yl)-2-cyano-3,4-dihydroxytetrahydrofuran-2-yl)methoxy)(phenoxy)phosphoryl)amino)ethyl dodecanoate]	35 nM	43 nM	8 nM	5250 nM				
C[C@H](N[P@](=O)(OC[C@@]1(C#N)O[C@@H](c2ccc3c(N)ncnn23)[C@H](O)[C@@H]1O)Oc1ccccc1)C(=O)OC1CCCCC1 (single isomer, unassigned) [Example 6]	227 nM	124 nM	88 nM	2940 nM				
C[C@H](N[P@](=O)(OC[C@@]1(C#N)O[C@@H](c2ccc3c(N)ncnn23)[C@H](O)[C@@H]1O)Oc1ccccc1)C(=O)O[C@H]1CC[C@H](C(F)(F)F)CC1 (single isomer, unassigned) [Example 18]	212 nM	91 nM	114 nM	12300 nM				
C[C@H](N[P@](=O)(OC[C@@]1(C#N)O[C@@H](c2ccc3c(N)ncnn23)[C@H](O)[C@@H]1O)Oc1ccccc1)C(=O)O[C@H]1CC[C@H](C(C)(C)C)CC1 (single isomer, unassigned) [Example 22]	200 nM	36 nM	103 nM	5750 nM				
CCC(CC)COC(=O)[C@H](C)N[P@](=O)(OC[C@@]1(C#N)O[C@@H](c2ccc3c(N)ncnn23)[C@H](O)[C@@H]1O)Oc1ccccc1 (single isomer, unassigned) [Example 25]	135 nM	127 nM	26 nM	2860 nM				
C[C@H](NP(=O)(OC[C@@]1(C#N)O[C@@H](c2ccc3c(N)ncnn23)[C@H](O)[C@@H]1O)Oc1ccccc1)C(=O)OCC1CCCCC1 (single isomer, unassigned) [Example 247]	317 nM		44 nM		510 nM	12000 nM		
C[C@H](NP(=O)(OC[C@@]1(C#N)O[C@@H](c2ccc3c(N)ncnn23)[C@H](O)[C@@H]1O)Oc1ccccc1)C(=O)OCC1CCCCC1 (single isomer, unassigned) [Example 248]					2620 nM	4720 nM	174 nM	26 nM
C[C@H](NP(=O)(OC[C@@]1(C#N)O[C@@H](c2ccc3c(N)ncnn23)[C@H](O)[C@@H]1O)Oc1ccccc1)C(=O)OCCC(C)(C)C (single isomer, unassigned) [Example 252]			26 nM		31 nM	7000 nM		
C[C@H](NP(=O)(OC[C@@]1(C#N)O[C@@H](c2ccc3c(N)ncnn23)[C@H](O)[C@@H]1O)Oc1ccccc1)C(=O)OCCC(C)(C)C (single isomer, unassigned) [Example 253]					70 nM	2780 nM		20 nM
C[C@H](NP(=O)(OC[C@@]1(C#N)O[C@@H](c2ccc3c(N)ncnn23)[C@H](O)[C@@H]1O)Oc1ccccc1)C(=O)OC1CCCCC1 (stereo partly drawn) [Example 4, (2S)-cyclohexyl 2-(((((2R,3S,4R,5S)-5-(4-aminopyrrolo[2,1-f][1,2,4]triazin-7-yl)-2-cyano-3,4-dihydroxytetrahydrofuran-2-yl)methoxy)(phenoxy)phosphoryl)amino)propanoate]	510 nM	76 nM	96 nM					
CCOC(=O)[C@H](C)N[P@](=O)(OC[C@@]1(C#N)O[C@@H](c2ccc3c(N)ncnn23)[C@H](O)[C@@H]1O)Oc1ccccc1 [Example 29, Ethyl ((S)-(((2R,3S,4R,5S)-5-(4-aminopyrrolo[2,1-f][1,2,4]triazin-7-yl)-2-cyano-3,4-dihydroxytetrahydrofuran-2-yl)methoxy)(phenoxy)phosphoryl)-L-alaninate]	678 nM	932 nM	91 nM	36100 nM				
COC(=O)[C@H](C)N[P@](=O)(OC[C@@]1(C#N)O[C@@H](c2ccc3c(N)ncnn23)[C@H](O)[C@@H]1O)Oc1ccccc1 [Example 52, methyl ((S)-(((2R,3S,4R,5S)-5-(4-aminopyrrolo[2,1-f][1,2,4]triazin-7-yl)-2-cyano-3,4-dihydroxytetrahydrofuran-2-yl)methoxy)(phenoxy)phosphoryl)-L-alaninate]	1250 nM	252 nM	94 nM	> 47000 nM				
CCC(CC)COC(=O)[C@@H](C)NP(=O)(OC[C@@]1(C#N)O[C@@H](c2ccc3c(N)ncnn23)[C@H](O)[C@@H]1O)Oc1ccccc1 (stereo partly drawn) [Example 82, (2R)-2-ethylbutyl 2-(((((2R,3S,4R,5S)-5-(4-aminopyrrolo[2,1-f][1,2,4]triazin-7-yl)-2-cyano-3,4-dihydroxytetrahydrofuran-2-yl)methoxy)(phenoxy)phosphoryl)amino)propanoate]	9270 nM	3000 nM	2510 nM	> 50000 nM				
C[C@H](NP(=O)(OC[C@@]1(C#N)O[C@@H](c2ccc3c(N)ncnn23)[C@H](O)[C@@H]1O)Oc1ccccc1)C(=O)OCC(C)(C)C (stereo partly drawn) [Example 92, (2S)-neopentyl 2-(((((2R,3S,4R,5S)-5-(4-aminopyrrolo[2,1-f][1,2,4]triazin-7-yl)-2-cyano-3,4-dihydroxytetrahydrofuran-2-yl)methoxy)(phenoxy)phosphoryl)amino)propanoate]	225 nM	73 nM	64 nM					
C[C@H](N[P@](=O)(OC[C@@]1(C#N)O[C@@H](c2ccc3c(N)ncnn23)[C@H](O)[C@@H]1O)Oc1ccccc1)C(=O)OCC(C)(C)C [Example 94]					118 nM	2340 nM	209 nM	100 nM
C[C@H](NP(=O)(OC[C@@]1(C#N)O[C@@H](c2ccc3c(N)ncnn23)[C@H](O)[C@@H]1O)Oc1ccccc1)C(=O)OCCC(C)(C)C (stereo partly drawn) [Example 251, 3,3-dimethylbutyl ((((2R,3S,4R,5S)-5-(4-aminopyrrolo[2,1-f][1,2,4]triazin-7-yl)-2-cyano-3,4-dihydroxytetrahydrofuran-2-yl)methoxy)(phenoxy)phosphoryl)-L-alaninate]			8 nM	3530 nM				
CCC(C)(C)COC(=O)[C@H](C)NP(=O)(OC[C@@]1(C#N)O[C@@H](c2ccc3c(N)ncnn23)[C@H](O)[C@@H]1O)Oc1ccccc1 (stereo partly drawn) [Example 254, 2,2-dimethylbutyl ((((2R,3S,4R,5S)-5-(4-aminopyrrolo[2,1-f][1,2,4]triazin-7-yl)-2-cyano-3,4-dihydroxytetrahydrofuran-2-yl)methoxy)(phenoxy)phosphoryl)-L-alaninate]		46 nM	17 nM	13000 nM				
